Assay results reported in patent publication US11415513B2, “Method for determining the degree of sensitivity of a strain of fungus to an antifungal agent” (UNIVERSITE GRENOBLE ALPES, priority 2015, dated 2022).
Converted amounts (≈) assume the structure as drawn. Read-outs that look alike come from different tables or passages of the source.

Legend:
[1] = test system: strain GRE32 of C. krusei; experiment: Sensitivity test by HCA microscopy (chitin level, Calcofluor White; cell count); type: cell-based, Candida krusei
Procedure: (§1) The strains of Candida were incubated beforehand at 30° C. overnight in a yeast extract medium—peptone dextrose (YPD) (1% bacto peptone, 0.5% yeast extract, 2% glucose, 1.5% agar).
(§2) Yeast colonies were then removed from YPD medium plates and suspended in a 0.9% NaCl saline solution, in which the cell concentration was estimated by optical microscopy using Kova counting slides.
(§3) A dilution was performed to obtain 15 ml of an inoculum at 3×10^6 CFU/ml, in a synthetic complete (SC) medium at pH 7 (2% glucose, 0.5% ammonium sulfate, 0.17% nitrogen-containing yeast base, 0.2% synthetic complete mixture, and 10% HEPES 1.5M pH 7.2) for C. albicans, C. parapsilosis, C. tropicalis and C. krusei, and in a solution of RPMI 1640 pH 7.3 (10% HEPES 1M pH 7.2) for C. glabrata, so as to reduce the formation of septa and clusters.
(§4) 1 ml of inoculum was then added to 2 ml of antifungal solution prepared in an SC or RPMI medium depending on the species of fungus, so as to obtain a final concentration of yeast of 10^6 CFU/ml and the desired concentration of antifungal agent according to table 1.
(§5) After homogenisation, the cultures were placed at 30° C. at 200 rpm, with the exception of cultures of C. glabrata, which were placed at 35° C. at 200 rpm, and incubated for a period of 6.5 h or 24 h.
(§6) After incubation, 100 μl of the culture of fungi obtained above were transferred in triplicate to 96-well plates, and 2.5 μl of Calcofluor White (CFW) were added to each well so as to mark the chitin of the cell walls of the yeasts.
(§7) A step of acquiring images by automated fluorescence microscopy (ScanR screening station, Olympus), using a 40× lens and a CFW filter, made it possible to obtain 30 images per well so as to capture enough cells to provide statistically significant data. These images were analysed by software (ScanR analysis software, Olympus). Firstly, the background noise was processed so as to improve the contrast between the fluorescence of the yeasts and background noise. A pixel threshold was then defined. Segmentation of the fluorescent elements present in each of the acquired images was then performed using an algorithm predefined in the software, making it possible to determine the limit of each element on the basis of the fluorescence intensity of said element. A size parameter was then applied to select the yeasts and eliminate the aggregates and the fluorescent debris.
Each element then corresponding to a yeast, it was thus possible, on the basis of these elements predefined beforehand, to define the fluorescence intensity for each of the yeasts, this intensity being directly correlated with the chitin content of their wall.
On the basis of said defined elements, it was also possible to automatically count the yeasts,
The strain GRE32 of C. krusei was cultivated as described in paragraph I of the Examples section so as to obtain an inoculum at 3×10^6 CFU/ml in 15 ml of SC medium.
2 ml of fluconazole solution prepared in the SC medium were then added to 1 ml of this inoculum so as to obtain a final concentration of yeast of 10^6 CFU/ml and of 128 μg/ml in fluconazole. […]
(§8) The chitin level in the cell wall of the yeasts was then measured by […] analysis (HCA) microscopy, as described in paragraph II of the Examples section, in triplicate for each condition of concentration of fluconazole and without fluconazole. […]

[2] = test system: strain DSY296 of C. albicans; experiment: Etest method (MIC); type: cell-based, Candida albicans; conditions: RPMI medium plates, 24 h at 35° C.; for MIC: Candida albicans
Procedure: (§9) The Etest® method is a commercial test for determining the sensitivity of a strain, most frequently used routinely in clinical mycology laboratories.
(§10) The Etest® tests were performed according to the manufacturer's instructions. After distributing a standardised Mac Farland 0.5 inoculum (equivalent of […]) over plates of RPMI medium, said plates were incubated for 24 h at 35° C., with the exception of C. glabrata in which case the incubation was extended to 48 h so as to be able to determine the minimum inhibitory concentration (MIC).
(§11) The results of the MICs obtained were interpreted in accordance with the tables of the CLSI (Clinical and Laboratory Standards Institute) and/or of EUCAST (European Committee on Antimicrobial Susceptibility Testing) (Arendrup M C, Cuenca-Estrella M, Lass-Flörl C, Hope W W (2014) Breakpoints for antifungal agents: an update from EUCAST focussing on echinocandins against Candida spp and triazoles against Aspergillus spp. Drug Resist Updat 16(6):81-95. doi:10.1016/j.drup.2014.01.001) (cf. Table 2 taken from Maubon D, Garnaud C, Calandra T, et al. (2014) Resistance of Candida spp. to antifungal drugs in the ICU: where are we now? Intensive Care Med. doi: 10.1007/s00134-014-3404-7) which list the clinical thresholds (CBPs) for the most common species of yeast of the genus Candida as a function of different antifungal agents, or according to the table of epidemiological thresholds (ECVs).

[3] = test system: strain SC5314 of C. albicans; experiment: Etest method (MIC); type: cell-based, Candida albicans; conditions: RPMI medium plates, 24 h at 35° C.; for MIC: Candida albicans, SC5314
Procedure: as §9, §10, §11

[4] = test system: strain Tg5 of C. glabrata; experiment: Etest method (MIC); type: cell-based, Candida glabrata; conditions: for MIC: Nakaseomyces glabratus, read-out: MIC (Etest method)
Procedure: as §9, §10, §11

[5] = test system: strain Tg5 of C. glabrata; experiment: Sensitivity test by HCA microscopy (chitin level, Calcofluor White); type: cell-based, Candida glabrata; conditions: 6.5 h at 35° C., RPMI medium; for decrease in the chitin level in the wall of the cells: vs cells in the absence of antifungal agent, concentration gradient of Table 1
Procedure: as §1, §2, §3, §4, §5, §6
as §7, with “A size parameter was then applied to select the yeasts and eliminate the aggregates and the fluorescent debris.” left out
Each element then corresponding to a yeast, it was thus possible, on the basis of these elements predefined beforehand, to define the fluorescence intensity for each of the yeasts, this intensity being directly correlated with the chitin content of their wall. […]
as §8

[6] = RPMI medium plates, 35° C., incubation extended to 48 h for C. glabrata

Compound	phenotype of the strain with respect to the antifungal agent (HCA) ([1]; 6.5 h at 30° C., SC medium)	decrease in the chitin level in the wall of the cells ([1]; vs cells in the absence of antifungal agent, 6.5 h at 30° C., SC medium, concentration gradient of Table 1)	MIC [2]	phenotype by Etest MIC, interpretation by the EUCAST and CLSI tables [2]	MIC [3]	phenotype by Etest MIC, interpretation by the EUCAST and CLSI tables [3]	MIC [4, 6]	phenotype by Etest MIC, interpretation by the EUCAST and/or CLSI tables [4, 6]	phenotype of the strain with respect to the antifungal agent (HCA) [5]	decrease in the chitin level in the wall of the cells [5]	phenotype of the strain with respect to the antifungal agent (HCA) ([1]; 24 h at 30° C.)	decrease of the number of cells ([1]; vs cells in the absence of antifungal agent, 24 h at 30° C.)	increase in the chitin level in the wall of the cells ([1]; vs cells in the absence of antifungal agent, 24 h at 30° C., inoculum in SC medium, antifungal solution in RPMI medium, concentration gradient of Table 1)	MIC ([4]; 48 h)
OC(Cn1cncn1)(Cn1cncn1)c1ccc(F)cc1F [fluconazole]	resistant (an increase in the chitin level having a value less than 10% or a decrease in the chitin level of less than 20% or an unchanged chitin level)	less than 20%	96 µg/mL (≈ 313 µM)	resistant	0.125 µg/mL (≈ 0.408 µM)	sensitive	> 256 µg/mL	resistant	resistant (an increase in the chitin level having a value less than 10% or a decrease in the chitin level of less than 20% or an unchanged chitin level)	less than 20%				
C[C@@H](c1ncncc1F)[C@](O)(Cn1cncn1)c1ccc(F)cc1F [voriconazole]			1 µg/mL (≈ 2.86 µM)	resistant	0.012 µg/mL (≈ 0.0344 µM)	sensitive		resistant	resistant (an increase in the chitin level having a value less than 10% or a decrease in the chitin level of less than 20% or an unchanged chitin level)	less than 20%	intermediate (an increase in the chitin level having a value of from 10% to a value less than 20%)	less than 0.3 log	greater than or equal to 20%	8 µg/mL (≈ 22.9 µM)
